Publication PMC10856454, “Discovery of Novel Antitumor Small-Molecule Agent with Dual Action of CDK2/p-RB and MDM2/p53” (Molecules, 2024)

Tests used:
OVCAR3 cells [1] = assay: Cell proliferation assay (Celltiter-Glo), OVCAR3; assay type: cell-based; conditions: Homo sapiens, OVCAR-3, 120 h; OVCAR3 (overexpression of CCNE1), five days
Protocol: (§1) Celltiter-Glo Luminescent Cell Viability Assay (Promega, Madison, WI, USA) was used to detect cell viability according to the manufacturer’s instructions. This assay is a homogeneous method of determining the number of viable cells in a culture based on quantitation of the ATP present, an indicator of metabolically active cells. Cells were digested and paved in white-bottomed 96-well plates with 1000 cells/100 μL cell suspension solution; then, different concentrations of compounds were added the next day. TOV-21G and HCT116 were placed in the incubator for three days and OVCAR3 for five days. Then, 100 μL Celltiter-Glo solution was added and mixed for 5 min; the luminous intensity of each well was detected with a spectrophotometer (BioTek, Winooski, VT, USA). The experiment was repeated three times to calculate the cell survival rate.

HCT116 cells [2] = assay: Cell cycle detection by flow cytometry, HCT116; assay type: cell-based; conditions: 24 h
Protocol: (§2) Cells were plated at 300,000 cells overnight in six-well plates. III-13 was added in a dose-dependent fashion and then cells were incubated for 24 h. The cells were then fixed with 75% ethanol overnight at 4 °C. The cells were centrifuged, and ethanol was removed. The cells were washed twice with 1 × PBS following staining with DAPI (4′, 6′ diamino-2-phenylindole) and analyzed using Guava easyCyte HT (Merck KGaA, Darmstadt, Germany) with a blue filter. Experiments were performed in triplicate.

OVCAR3 cells [3] = assay: Cell cycle detection by flow cytometry, OVCAR3; assay type: cell-based; conditions: 24 h
Protocol: as §2

[4] = test system: p-Rb, p-CDK2 in HCT116 cells; assay: Western blot of CDK2 pathway proteins in HCT116 cells; assay type: cell-based
Protocol: (§3) Total protein from HCT116, OVCAR3 cells and tissues was collected and homogenized in RIPA buffer. The total cellular protein extract was electrophoresed on 12% SDS-polyacrylamide gels and then transferred to a PVDF membrane (Thermo Fisher Scientific, Waltham, MA, USA). Primary antibodies were incubated overnight at 4 °C and secondary antibodies were incubated at room temperature for 1.5 h. Imaging was performed using Image Quant LAS4000 (GE, Boston, MA, USA).

[5] = Liver microsomal stability, human; assay type: in vitro ADME; conditions: Human liver microsomes
Protocol: Compounds were incubated with mouse, rat, and human liver microsomal samples and NADPH at 37 °C for 5, 10, 20, 30, or 60 min. The reaction was terminated with a cold acetonitrile solution containing tolbutamide. Compound retention was determined by LC-MS/MS. The retention times, chromatographic acquisition, and chromatographic integration of compounds and positive control substances were analyzed using Analyst (AB Sciex, Framingham, MA, USA).

HCT116 cells [6] = assay: Cell proliferation assay (Celltiter-Glo), HCT116; assay type: cell-based; conditions: Homo sapiens, HCT-116, 72 h; HCT116 (overexpression of CCNE1), three days
Protocol: as §1

HCT116 cells [7] = assay: Cell scratch test (migration), HCT116; assay type: cell-based; conditions: 24 h
Protocol: (§4) Cells were inoculated into six-well plates as long as they spread to the bottom of the wells after wall attachment. After 24 h of wall attachment, cells were scratched with a 200 μL pipette tip and then replaced with low serum medium (1% FBS) containing different concentrations of compounds. Spot photographs were taken at 0 h and 24 h after the scratch was made. Data analysis was performed using Adobe Photoshop 2021 (Adobe Systems Software Ireland Ltd., San Jose, CA, USA) and Image J2 (National Institutes of Health, Bethesda, MD, USA).

CDK2 = target: T1, CDK2 (Homo sapiens, UniProt P24941); assay: Kinase antagonist activity assay (TR-FRET), CDK2; assay type: biochemical
T1 construct: purchased Thermo Fisher Scientific
Protocol: (§5) The compounds were solubilized with DMSO (Solarbio Life Sciences, Beijing, China), and 11 concentrations were serially diluted at 3-fold; 100 nL of compound was added to 384-well plates, 5 μL of 2 × enzyme mixture (Thermo Fisher Scientific, Waltham, MA, USA) was added, and 5 μL of buffer was added instead of the complete inhibition control wells. Then, 1000 rpm centrifugation was performed for 30 s followed by a 15 min incubation at 23 °C. Next, 5 μL of 2 × MLight-MBP peptide (PerkinElmer, Waltham, MA, USA) was added to each well, with 1000 rpm centrifugation for 30 s and incubation at 23 °C for 90 min. At the end of the incubation, the reaction was terminated with buffer containing 15 mM EDTA and 2 nM Eu-anti-P-MBP antibody (PerkinElmer, Waltham, MA, USA), centrifuged at 1000 rpm for 1 min, and incubated at 23 °C for 60 min; the plates were read on a Perkin Elmer Envision ([…]).

OVCAR3 cells [8] = assay: Cell scratch test (migration), OVCAR3; assay type: cell-based; conditions: 24 h
Protocol: as §4

TOV-21G cells = assay: Cell proliferation assay (Celltiter-Glo), TOV-21G; assay type: cell-based; conditions: Homo sapiens, TOV21G, 72 h; TOV-21G (normal expression of CCNE1), three days
Protocol: as §1

[9] = test system: p-Rb, MDM2, p53 in HCT116 transplanted tumors; assay: Western blot of transplanted tumor tissues of nude mice; assay type: in vivo, Balb/c nude mice; conditions: Western blot of tumor tissue
Protocol: as §3
HCT116 cells (1 × 10^6) were implanted into the back of adult male Balb/c nude mice by subcutaneous injection. […] The solvent or drug containing solution was administered daily to the vehicle and dosing groups by intraperitoneal injection (0.2 mL/20 g). Tumor growth was measured every three days during treatment. At the end of the treatment, the mice were killed, and the tumors were removed and weighed.

CDK4 = target: T2, CDK4 (Homo sapiens, UniProt P11802); assay: Kinase antagonist activity assay (TR-FRET), CDK4; assay type: biochemical
T2 construct: purchased Thermo Fisher Scientific
T2 sequence (P11802 whole entry): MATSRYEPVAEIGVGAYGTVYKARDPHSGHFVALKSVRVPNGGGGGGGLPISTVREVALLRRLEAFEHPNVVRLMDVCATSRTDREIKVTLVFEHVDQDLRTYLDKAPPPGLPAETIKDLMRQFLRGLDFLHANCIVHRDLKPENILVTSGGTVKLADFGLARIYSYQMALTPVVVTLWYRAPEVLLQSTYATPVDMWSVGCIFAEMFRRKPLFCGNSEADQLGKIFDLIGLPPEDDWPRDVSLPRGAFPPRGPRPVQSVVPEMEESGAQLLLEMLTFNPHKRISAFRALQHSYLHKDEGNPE
T2 sequence (P24385 whole entry partner): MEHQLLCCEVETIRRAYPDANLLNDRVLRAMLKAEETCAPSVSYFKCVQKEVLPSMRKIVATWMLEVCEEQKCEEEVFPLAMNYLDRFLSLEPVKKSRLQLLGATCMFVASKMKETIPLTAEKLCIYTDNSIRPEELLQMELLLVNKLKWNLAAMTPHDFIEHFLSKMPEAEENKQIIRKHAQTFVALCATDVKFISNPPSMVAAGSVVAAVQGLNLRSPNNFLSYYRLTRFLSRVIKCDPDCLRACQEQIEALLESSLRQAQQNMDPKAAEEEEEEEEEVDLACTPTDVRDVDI
Protocol: as §5

IC50 (OVCAR3 cells [1]): 115 nM
IC90 (OVCAR3 cells [1]): 398 nM
CLint scaled [5]: 59.9 mL/min/kg
Remaining (T = 60 min) ([5]; 60 min): 15.4%
half-life ([5]; NADPH, 37 °C): 21.9 min
IC50 (HCT116 cells [6]): 60.9 nM
IC90 (HCT116 cells [6]): 235 nM
IC50 (CDK2): 2.6 nM
IC90 (CDK2): 26.2 nM
IC50 (CDK4): 6240 nM
IC90 (CDK4): 23100 nM
SMILES: CC1(C)CCN1C(=O)O[C@@H]1CC[C@H](c2cc(NC(=O)Cc3ccc(N4CCCC4=O)cc3)n[nH]2)C1 [III-13]
cell cycle arrest (HCT116 cells [2]): arrested HCT116 and OVCAR3 cells in the G0/G1 phase
cell cycle arrest (OVCAR3 cells [3]): arrested HCT116 and OVCAR3 cells in the G0/G1 phase
expression of p-Rb [4]: significantly reduced
p-CDK2 expression [4]: no significant effect
migration rate (HCT116 cells [7]): decreased significantly
migration rate (OVCAR3 cells [8]): decreased significantly
IC50 (TOV-21G cells): 164 nM
level of MDM2 in transplanted tumors [9]: significantly down-regulated
level of p53 protein in transplanted tumors [9]: up-regulated
level of p-Rb in the transplanted tumors [9]: significantly reduced
